Test results published in publication PMC10518257 (Nature Cancer, 2023).
Values joined by “and” are separate entries in the source; they are usually repeats but may differ in a detail not shown here. Equal values may be shown once. Read-outs that look alike come from different tables or passages of the source.

How the values were obtained:
[1] = system: ECLC5 luciferase cells implanted intracranially; assay: Intracranial efficacy study; type: in vivo, NSG mice; conditions: Fig. 8e (middle panel) ECLC5 luminescence; 50 mg/kg BID
[2] = system: TT cells; assay: Growth inhibition (alamarBlue, 96 h); type: cell-based, human; conditions: for raw viability signal (Source Data Fig. 3b-c): replicate sets
[3] = system: LUAD-0087AS2 cells; assay: Growth inhibition (alamarBlue, 96 h); type: cell-based, human; conditions: for raw viability signal (Source Data Fig. 3b-c): LUAD-0087AS2, replicate sets
[4] = system: LUAD-0057BS1 cells; assay: Growth inhibition (alamarBlue, 96 h); type: cell-based, human; conditions: for raw viability signal (Source Data Fig. 3b-c): LUAD-0057BS1, replicate sets
[5] = system: HBECp53-EV cells; assay: Growth inhibition (alamarBlue, 96 h); type: cell-based, human; conditions: for raw viability signal (Source Data Fig. 3b-c): HBEC-EV, replicate sets
[6] = system: Ba/F3 cells; assay: Growth inhibition assay in Ba/F3 cells (CellTiter-Glo, 72 h); type: cell-based
[7] = system: ECLC5B cells; assay: Growth inhibition (alamarBlue, 96 h); type: cell-based, human; conditions: ECLC5B; for raw viability signal (Source Data Fig. 3b-c): replicates
[8] = Homo sapiens, read-out: IC50 for Inhibition of Growth (95% CI), alamarBlue, 96 h

COc1cc2c(Nc3ccc(Br)cc3F)ncnc2cc1OCC1CCN(C)CC1 [Vandetanib]
Area Under Curve Mean [1]: -890991750
raw viability signal (Source Data Fig. 3b-c) ([2]; 0.01 nM): 24130.4 and 28596.3 and 33849.7 and 15452.6
raw viability signal (Source Data Fig. 3b-c) ([2]; 0.1 nM): 23355.5 and 28594.1 and 36565.2
raw viability signal (Source Data Fig. 3b-c) ([2]; 1 nM): 22374.7 and 27607.6 and 35010.1 and 13701.7
raw viability signal (Source Data Fig. 3b-c) ([2]; 10 nM): 16858.1 and 26132.6 and 31759.9 and 13240.5 and 11997.4
raw viability signal (Source Data Fig. 3b-c) ([2]; 100 nM): 9840.2 and 25256.2 and 32238.5 and 11048.8 and 6020.05
raw viability signal (Source Data Fig. 3b-c) ([2]; 1000 nM): 9436.58 and 12629.1 and 19662.7 and 4747.88 and 2242.82
raw viability signal (Source Data Fig. 3b-c) ([2]; 10000 nM): 6954.01 and 10117.3 and 4217.75 and 1470.42
IC50 [2, 8]: 0.09 µM
IC50 ([3]; Homo sapiens, read-out: IC50 for Inhibition of Growth (95% CI), LUAD-0087AS2, alamarBlue, 96 h): 0.264 µM
raw viability signal (Source Data Fig. 3b-c) ([3]; 0.01 nM): 12332.1 and 13934.5 and 13930.1
raw viability signal (Source Data Fig. 3b-c) ([3]; 0.1 nM): 10316.9 and 14234.5 and 13979.9
raw viability signal (Source Data Fig. 3b-c) ([3]; 1 nM): 14707.2 and 14551.9 and 13357
raw viability signal (Source Data Fig. 3b-c) ([3]; 10 nM): 9639.26 and 14042.7
raw viability signal (Source Data Fig. 3b-c) ([3]; 100 nM): 8268.62 and 14329.9 and 11925.1
raw viability signal (Source Data Fig. 3b-c) ([3]; 1000 nM): 3107.74 and 4188.25 and 2159.6 and 1975.84
raw viability signal (Source Data Fig. 3b-c) ([3]; 10000 nM): 1739.1 and 865.962 and 878.418 and 892.669
IC50 ([4]; Homo sapiens, read-out: IC50 for Inhibition of Growth (95% CI), LUAD-0057BS1, alamarBlue, 96 h): 0.363 µM
raw viability signal (Source Data Fig. 3b-c) ([4]; 0.01 nM): 17034.2 and 23597.8
raw viability signal (Source Data Fig. 3b-c) ([4]; 0.1 nM): 16283.3 and 21948.2
raw viability signal (Source Data Fig. 3b-c) ([4]; 1 nM): 16965.6 and 22300.3
raw viability signal (Source Data Fig. 3b-c) ([4]; 10 nM): 14389.1 and 16776.9 and 22078.9
raw viability signal (Source Data Fig. 3b-c) ([4]; 100 nM): 13528.1 and 13127 and 19841.4
raw viability signal (Source Data Fig. 3b-c) ([4]; 1000 nM): 5066.49 and 6132.7 and 5277.44
raw viability signal (Source Data Fig. 3b-c) ([4]; 10000 nM): 837.183 and 963.777 and 796.086
raw viability signal (Source Data Fig. 3b-c) ([5]; 0.01 nM): 25097.6 and 25887.6 and 17676.4
raw viability signal (Source Data Fig. 3b-c) ([5]; 0.1 nM): 26759 and 26118.3 and 17425.7
raw viability signal (Source Data Fig. 3b-c) ([5]; 1 nM): 23471.2 and 28489.7 and 18981.5
raw viability signal (Source Data Fig. 3b-c) ([5]; 10 nM): 23607.2 and 26549.6 and 18321.2
raw viability signal (Source Data Fig. 3b-c) ([5]; 100 nM): 25750 and 25003
raw viability signal (Source Data Fig. 3b-c) ([5]; 1000 nM): 22139.5 and 31238.9 and 18759.8
raw viability signal (Source Data Fig. 3b-c) ([5]; 10000 nM): 1428.02 and 2282.52 and 1103.83
IC50 ([5]; Homo sapiens, read-out: IC50 for Inhibition of Growth (95% CI), HBECp53-EV, alamarBlue, 96 h): 3.58 µM
GI50 ([6]; Ba/F3 (parental), replicate Sets 1-3, read-out: GI50): 7.33 µM and 9.12 µM
GI50 ([6]; Mus musculus, BaF3, 72 h, Ba/F3, CellTiter-Glo, 72 h, read-out: GI50 value (Mean ± SD)): 7.49 µM
GI50 ([6]; Mus musculus, BaF3, Ba/F3 (parental), replicate Sets 1-3, read-out: GI50): 6.02 µM
raw viability signal (Source Data Fig. 3b-c) ([7]; 0.01 nM): 9731.41 and 6613.39 and 26019.7
raw viability signal (Source Data Fig. 3b-c) ([7]; 0.1 nM): 10719.9 and 7303.21 and 26332.1
raw viability signal (Source Data Fig. 3b-c) ([7]; 1 nM): 7568.32 and 25576
raw viability signal (Source Data Fig. 3b-c) ([7]; 10 nM): 10376.5 and 7240.47 and 24146.6
raw viability signal (Source Data Fig. 3b-c) ([7]; 100 nM): 8370.2 and 5534.52 and 20059.6
raw viability signal (Source Data Fig. 3b-c) ([7]; 1000 nM): 1326.74 and 1175.68 and 3727.83
raw viability signal (Source Data Fig. 3b-c) ([7]; 10000 nM): 1185.45 and 1144.21 and 2595.71
IC50 [7, 8]: 0.248 µM
